Measured values published in patent US11111500B2, “Mutated protoporphyrinogen IX oxidase (PPX) genes” (CIBUS US LLC, priority 2010, dated 2021).

Columns and labels:
[1] = test system: leaf disc explants of in vitro grown potato plants; test: Leaf disk kill curve (callus formation in leaf disc explants); type: cell-based; details: solid Haberlach culture medium, 1% DMSO
Method: Aimed at establish the concentration of sulfentrazone that will inhibit callus formation in leaf disc explants, leaf discs were punched with a sterile hole punch from 5 weeks old in vitro grown potato plants. The leaf discs were cultured in petri dishes containing solid Haberlach culture medium containing various concentrations of Sulfentrazone in a final concentration of 1% DMSO. Six leaf discs cultured at each herbicide concentration. Plates were sealed with micropore tape and incubated at room temperature (approximately 23° C.). In an initial experiment, 7.8 μM sulfentrazone, the lowest concentration tested in that experiment, was sufficient to stop callus formations and bleach all leaf discs within 20 days. […] Similar leaf disc kill curve experiments were performed using saflufenacil where 0.5 μM of this herbicide was sufficient to inhibit callus formation in almost all leaf discs after 20 days.

[2] = test system: potato plastidal PPX; test: Tolerance to saflufenacil of HemG mutant E. coli complemented with potato plastidal PPX (plate based selection, colony count); type: cell-based, Solanum tuberosum
From the text: StcPPX1, less its chloroplast transit peptide was cloned from cDNA into Cibus' proprietary functional screening vector. This vector may be used both for functional screening, and for GRON QC. The potato PPX genes were used to complement the HemG mutant strain of E. coli, which lacks a functional HemG gene, a bacterial homolog of PPX. Without a complementing gene, the media must be supplemented with hematin for E. coli growth.
In order to assess mutations that confer tolerance to PPX inhibitors such as Chateau (flumioxazin-Valent/Sumitomo), Naja (diphenylether—MAI) or Kixor (saflufenacil—BASF). Pure active ingredients for the PPX inhibiting herbicides Chateau (flumioxazin—Valent/Sumitomo), Spartan (sulfentrazone—FMC) and Kixor/Sharpen (saflufenacil—BASF) were obtained. […] This was further refined, and 0.75 mM sulfentrazone was also used to select for tolerance. […] All potato mitochondrial PPX genes and alleles were tested for natural tolerance to sulfentrazone and flumioxazin, but none were tolerant.
Tolerance of all possible amino acid substitutions at each position displaying tolerance to sulfentrazone or flumioxazin were tested. Next, single amino acid substitutions were combined in all permutations and combinations to assess complementation and herbicide tolerance.

CC(C)N(C)S(=O)(=O)NC(=O)c1cc(-n2c(=O)cc(C(F)(F)F)n(C)c2=O)c(F)cc1Cl [saflufenacil]
concentration sufficient to inhibit callus formation in almost all leaf discs after 20 days [1]: 0.5 µM
saflufenacil concentration with no growth of the wildtype construct [2]: 0.3 mM
